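1) Cells in 96-well plates. 2) Compound, 48 h, 5 concentrations. 3) Linear interpolation between surrounding doses. 4) Unreached endpoint = highest concentration. The concentration for full growth arrest is given as TGI.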 A value given as a limit tells only on which side of the number the result lay.

One test relates to MDA-MB-231 breast. As to the kind of experiment: NCI-60 cell line screen, 48 h.
In the case of `Nc1ccc2nc(-c3ccccn3)c(-c3ccccn3)nc2c1`, the TGI was greater than 100 µM.

Consider `CN(CCC#N)c1ccc(/C=C2\SC(=S)NC2=O)cc1`, for which the TGI was greater than 100 µM.

A further test deals with SK-MEL-2 melanoma. As to the kind of experiment: NCI-60 cell line screen, 48 h.
In turn, `Nc1ccc2nc(-c3ccccn3)c(-c3ccccn3)nc2c1` showed a TGI greater than 100 µM.

Consider `CC1=C(C(=O)Nc2ccc([N+](=O)[O-])cc2)C(c2ccc(N(C)C)cc2)C(C(=O)Nc2ccc([N+](=O)[O-])cc2)=C(C)N1`, for which the TGI is 29.8 µM.

`CN(CCC#N)c1ccc(/C=C2\SC(=S)NC2=O)cc1` gave a TGI greater than 100 µM.

The next test deals with U251 CNS. In words: NCI-60 cell line screen, 48 h.
For the compound `Nc1ccc2nc(-c3ccccn3)c(-c3ccccn3)nc2c1`, the TGI was greater than 100 µM.

In turn, `CC1=C(C(=O)Nc2ccc([N+](=O)[O-])cc2)C(c2ccc(N(C)C)cc2)C(C(=O)Nc2ccc([N+](=O)[O-])cc2)=C(C)N1` registered a TGI of 66.5 µM.

`O=C1C=CC(=Nc2ccc3c(c2)C(Br)c2ccccc2-3)O1` (stereo unspecified) displayed a TGI greater than 100 µM.

Turning to `CN(CCC#N)c1ccc(/C=C2\SC(=S)NC2=O)cc1`, the TGI was greater than 100 µM.

The subject of the next test is BT-549 breast. As to the kind of experiment: NCI-60 cell line screen, 48 h.
As to `Nc1ccc2nc(-c3ccccn3)c(-c3ccccn3)nc2c1`, the TGI is greater than 100 µM.

For `CN(CCC#N)c1ccc(/C=C2\SC(=S)NC2=O)cc1`, the TGI is 79.2 µM.

In a further test the test system is OVCAR-3 ovarian. In words: NCI-60 cell line screen, 48 h.
In turn, `Nc1ccc2nc(-c3ccccn3)c(-c3ccccn3)nc2c1` yielded a TGI greater than 100 µM.

The compound `CC1=C(C(=O)Nc2ccc([N+](=O)[O-])cc2)C(c2ccc(N(C)C)cc2)C(C(=O)Nc2ccc([N+](=O)[O-])cc2)=C(C)N1` showed a TGI of 34.5 µM.

Compound `O=C1C=CC(=Nc2ccc3c(c2)C(Br)c2ccccc2-3)O1` (stereo unspecified) displayed a TGI greater than 100 µM.

`CN(CCC#N)c1ccc(/C=C2\SC(=S)NC2=O)cc1`: the TGI came out at 67.9 µM.

Another test has as its system SF-268 CNS. In words: NCI-60 cell line screen, 48 h.
`Nc1ccc2nc(-c3ccccn3)c(-c3ccccn3)nc2c1` returned a TGI greater than 100 µM.

`CC1=C(C(=O)Nc2ccc([N+](=O)[O-])cc2)C(c2ccc(N(C)C)cc2)C(C(=O)Nc2ccc([N+](=O)[O-])cc2)=C(C)N1` returned a TGI of 96.1 µM.

Consider `O=C1C=CC(=Nc2ccc3c(c2)C(Br)c2ccccc2-3)O1` (stereo unspecified), for which the TGI was greater than 100 µM.

`CN(CCC#N)c1ccc(/C=C2\SC(=S)NC2=O)cc1`: the TGI is greater than 100 µM.

In another test the test system is HS 578T breast. As to the kind of experiment: NCI-60 cell line screen, 48 h.
Regarding `Nc1ccc2nc(-c3ccccn3)c(-c3ccccn3)nc2c1`, the TGI was greater than 100 µM.

Regarding `CN(CCC#N)c1ccc(/C=C2\SC(=S)NC2=O)cc1`, the TGI is greater than 100 µM.

A further test concerns HCT-15 colon. As to the kind of experiment: NCI-60 cell line screen, 48 h.
For `Nc1ccc2nc(-c3ccccn3)c(-c3ccccn3)nc2c1`, the TGI was greater than 100 µM.

`O=C1C=CC(=Nc2ccc3c(c2)C(Br)c2ccccc2-3)O1` (stereo unspecified): the TGI was greater than 100 µM.

Compound `CN(CCC#N)c1ccc(/C=C2\SC(=S)NC2=O)cc1` gave a TGI greater than 100 µM.

Another test deals with UACC-257 melanoma. As to the kind of experiment: NCI-60 cell line screen, 48 h.
Compound `Nc1ccc2nc(-c3ccccn3)c(-c3ccccn3)nc2c1` returned a TGI greater than 100 µM.

The compound `CC1=C(C(=O)Nc2ccc([N+](=O)[O-])cc2)C(c2ccc(N(C)C)cc2)C(C(=O)Nc2ccc([N+](=O)[O-])cc2)=C(C)N1` gave a TGI of 35.6 µM.

`O=C1C=CC(=Nc2ccc3c(c2)C(Br)c2ccccc2-3)O1` (stereo unspecified) registered a TGI greater than 100 µM.

The compound `CN(CCC#N)c1ccc(/C=C2\SC(=S)NC2=O)cc1` came in with a TGI greater than 100 µM.

The test system of the next test is SNB-78 CNS. As to the kind of experiment: NCI-60 cell line screen, 48 h.
As to `CC1=C(C(=O)Nc2ccc([N+](=O)[O-])cc2)C(c2ccc(N(C)C)cc2)C(C(=O)Nc2ccc([N+](=O)[O-])cc2)=C(C)N1`, the TGI was greater than 100 µM.

Regarding `O=C1C=CC(=Nc2ccc3c(c2)C(Br)c2ccccc2-3)O1` (stereo unspecified), the TGI was greater than 100 µM.

The next test has as its system HT29 colon. As to the kind of experiment: NCI-60 cell line screen, 48 h.
Compound `CC1=C(C(=O)Nc2ccc([N+](=O)[O-])cc2)C(c2ccc(N(C)C)cc2)C(C(=O)Nc2ccc([N+](=O)[O-])cc2)=C(C)N1` returned a TGI of 46.9 µM.

`CN(CCC#N)c1ccc(/C=C2\SC(=S)NC2=O)cc1` yielded a TGI greater than 100 µM.

Another test deals with RXF 393 renal. As to the kind of experiment: NCI-60 cell line screen, 48 h.
With `Nc1ccc2nc(-c3ccccn3)c(-c3ccccn3)nc2c1`, the TGI is greater than 100 µM.

In turn, `CC1=C(C(=O)Nc2ccc([N+](=O)[O-])cc2)C(c2ccc(N(C)C)cc2)C(C(=O)Nc2ccc([N+](=O)[O-])cc2)=C(C)N1` yielded a TGI of 30.9 µM.

Turning to `O=C1C=CC(=Nc2ccc3c(c2)C(Br)c2ccccc2-3)O1` (stereo unspecified), the TGI was greater than 100 µM.

`CN(CCC#N)c1ccc(/C=C2\SC(=S)NC2=O)cc1` had a TGI of 96.9 µM.

The subject of a further test is SF-539 CNS. In words: NCI-60 cell line screen, 48 h.
`Nc1ccc2nc(-c3ccccn3)c(-c3ccccn3)nc2c1` returned a TGI greater than 100 µM.

The compound `CC1=C(C(=O)Nc2ccc([N+](=O)[O-])cc2)C(c2ccc(N(C)C)cc2)C(C(=O)Nc2ccc([N+](=O)[O-])cc2)=C(C)N1` showed a TGI of 50.5 µM.

`O=C1C=CC(=Nc2ccc3c(c2)C(Br)c2ccccc2-3)O1` (stereo unspecified): the TGI was greater than 100 µM.

`CN(CCC#N)c1ccc(/C=C2\SC(=S)NC2=O)cc1` displayed a TGI greater than 100 µM.

For another test, the system named is SN12C renal. In words: NCI-60 cell line screen, 48 h.
For the compound `Nc1ccc2nc(-c3ccccn3)c(-c3ccccn3)nc2c1`, the TGI was greater than 100 µM.

Compound `O=C1C=CC(=Nc2ccc3c(c2)C(Br)c2ccccc2-3)O1` (stereo unspecified) came in with a TGI of 49.9 µM.

Regarding `CN(CCC#N)c1ccc(/C=C2\SC(=S)NC2=O)cc1`, the TGI is greater than 100 µM.

For the next test, the system named is SNB-75 CNS. In words: NCI-60 cell line screen, 48 h.
The compound `Nc1ccc2nc(-c3ccccn3)c(-c3ccccn3)nc2c1` displayed a TGI greater than 100 µM.

As for `CC1=C(C(=O)Nc2ccc([N+](=O)[O-])cc2)C(c2ccc(N(C)C)cc2)C(C(=O)Nc2ccc([N+](=O)[O-])cc2)=C(C)N1`, the TGI worked out at 59.6 µM.

On to `O=C1C=CC(=Nc2ccc3c(c2)C(Br)c2ccccc2-3)O1` (stereo unspecified), for which the TGI is greater than 100 µM.

`CN(CCC#N)c1ccc(/C=C2\SC(=S)NC2=O)cc1` returned a TGI greater than 100 µM.

For a further test, the system named is K-562 leukemia. In words: NCI-60 cell line screen, 48 h.
`Nc1ccc2nc(-c3ccccn3)c(-c3ccccn3)nc2c1` displayed a TGI greater than 100 µM.

On to `CC1=C(C(=O)Nc2ccc([N+](=O)[O-])cc2)C(c2ccc(N(C)C)cc2)C(C(=O)Nc2ccc([N+](=O)[O-])cc2)=C(C)N1`, for which the TGI amounted to 37.6 µM.

Consider `O=C1C=CC(=Nc2ccc3c(c2)C(Br)c2ccccc2-3)O1` (stereo unspecified), for which the TGI was greater than 100 µM.

With `CN(CCC#N)c1ccc(/C=C2\SC(=S)NC2=O)cc1`, the TGI is greater than 100 µM.

(Values after PubChem BioAssay (NCI).)
